# Experimental data: PubChem BioAssay AID1996
# Conditions: buffer; pH 7.4; 200.0 µM
row,SMILES,solubility kinetic [mg/mL]
1,O=C(NCc1ccccc1)c1ccc[n+]([O-])c1,> 0.0342
2,Cc1ccc(CNC(=S)N(C)C)cc1,> 0.0312
3,NS(=O)(=O)c1ccc(NC(=O)Nc2ccc(C(F)(F)F)cc2)cc1,< 0.0003
4,Cc1cccc(NC(=S)NCCc2ccccn2)c1,> 0.0407
5,Cc1cc(N2CCN(C(=O)c3ccco3)CC2)c2ccccc2n1,0.0447
6,Cc1ccc(C)c(S(=O)(=O)Nc2ccc3[nH]c(=O)[nH]c3c2)c1,0.0104
7,Cc1cc(C)cc(NC(=O)Nc2ccc3ccccc3n2)c1,< 0.0002
8,CNc1c(NC(=O)C2CCC(C)CC2)c(=O)oc2ccccc12 (centres undefined),0.0018
9,O=C(c1ccccc1)c1cccc[n+]1[O-],> 0.0299
10,CC(C)(C)C(=O)O/N=C(\N)c1ccc([N+](=O)[O-])s1,0.0082
11,Cc1ccc(-c2c(=O)n(O)c3ccccc3[n+]2[O-])cc1,0.0401
12,Cn1c(=O)c2cnc(-c3ccc(C(F)(F)F)cc3)nc2n(C)c1=O,< 0.0002
13,O=C(Nc1cc([N+](=O)[O-])ccc1N1CCCC1)c1ccco1,0.0409
14,CCc1nnc(SC(C)C(=O)Nc2nccs2)n1C (centres undefined),> 0.0446
15,O=C(O)c1ccccc1C(=O)NC1CCCc2ccccc21 (centres undefined),> 0.0443
16,CC(NC(=O)CCCC1CCCCC1)c1ccc(S(N)(=O)=O)cc1 (centres undefined),> 0.0529
17,CCCCC(CC)C(=O)Nc1cc(=O)[nH]c2nc3ccccc3n12 (centres undefined),0.0019
18,COc1ccc(C(C)NC(=O)CC23CC4CC(CC(C4)C2)C3)cc1 (centres undefined),0.0197
19,COc1ccc(Br)cc1CN(C)C(=O)c1ccncc1,> 0.0503
20,CCOc1ccc(NC(=O)NCc2cccn2C)cc1,0.0092
21,O=C(NC1CC1)c1cccc(S(=O)(=O)N2CCOCC2)c1,> 0.0466
22,CC(CCc1ccccc1)NC(=O)C1CCC1 (centres undefined),> 0.0347
23,NS(=O)(=O)c1ccc(CCNC(=O)Cc2ccc(Cl)cc2)cc1,> 0.0529
24,CC1=NOC(=O)/C1=C/c1ccc2c(c1)OCO2,0.0251

row,SMILES,solubility kinetic [mg/mL]
1,COc1cc(C(=O)N[C@H](C(=O)OCC(=O)NC2CCCCCC2)C(C)C)cc(OC)c1OC,> 0.0697
2,Cc1cc(Br)cc2c1N(C)C(=O)C2(c1ccc(O)cc1)c1ccc(O)cc1,0.0074
3,CCOc1ccc(CSC(=N)N)cc1Cl.Cl,> 0.0422
4,Cc1ccc(C(=O)NCc2ccco2)c(C)c1,0.0336
5,CC1CCCN(C(=O)COC(=O)COc2ccc(C#N)cc2)C1 (centres undefined),> 0.0475
6,CCOC(=O)Cc1csc(NC(=O)CCSc2ccccc2)n1,0.0385
7,C=CCNC(=S)Nc1sc2c(c1C(N)=O)CCCC2,0.0182
8,CC(C)C[C@H]1C(=O)N2CCCC2[C@]2(O)O[C@](NC(=O)[C@@H]3C=C4c5cccc6[nH]cc(c56)CC4N(C)C3)(C(C)C)C(=O)N12 (some centres undefined),0.0241
9,CCOC(=O)C1(C)NC(c2ccco2)C2C(=O)N(C)C(=O)C21 (centres undefined),> 0.0459
10,C#CCN1CCN(c2cccc(C(F)(F)F)c2)CC1,0.0098
11,Cl.O=C1NCC2(CCN(CCc3ccccc3)CC2)O1,> 0.0445
12,c1ccc2c(CN3CCCCC3)c[nH]c2c1,> 0.0321
13,CC(=O)c1ccc(NCCC(=O)c2ccccc2)cc1,< 0.0006
14,CCOc1cc(/C=C2/C(=O)ON=C2C)cc(Br)c1O,> 0.0489
15,CN(C)C(=O)c1ccc(OCC(F)(F)F)nc1,0.0367
16,COC(=O)c1cnc(Nc2ccc(Cl)cc2)c([N+](=O)[O-])c1,< 0.0002
17,NC(=S)Nc1ccc2c(c1)OCO2,> 0.0294
18,Cc1cc(=O)n2c(n1)NC(=NCc1ccccc1)NC2c1ccccc1 (centres undefined),> 0.0518
19,COCCNC(=O)CSc1nccn1Cc1ccc2c(c1)OCO2,> 0.0524
20,Cc1cccn2cc(-c3cc4ccccc4oc3=O)nc12,0.0006
21,CCn1c(Oc2ccc(F)cc2)nc2c1c(=O)n(C)c(=O)n2C,> 0.0477
22,CC(=O)c1ccc(OC(C)C(=O)NC2CCCCC2C)cc1 (centres undefined),> 0.0455
23,CC1CCCCN1C(C(=O)O)c1ccccc1.Cl (centres undefined),> 0.0405
24,c1ccc(N2CCN(C3CC4CCC3C4)CC2)cc1 (centres undefined),0.0271

row,SMILES,solubility kinetic [mg/mL]
1,Cc1ccc(C2(CCNCc3ccco3)CCOC(C(C)C)C2)cc1 (centres undefined),> 0.0512
2,CCN1CCN(S(=O)(=O)c2ccc(C(C)(C)C)cc2)CC1,0.0456
3,CC1CCCN(C(=O)C2CCN(S(=O)(=O)c3ccccc3)CC2)C1 (centres undefined),> 0.0526
4,CC12CCC(=O)N1C(C(=O)Nc1nc3ccccc3s1)CS2 (centres undefined),0.013
5,Cc1ccccc1NC(=O)CN1CCc2ccccc2C1,0.0248
6,COc1ccc(CNC(=O)N2CCN(c3ccccc3)CC2)cc1,0.0035
7,O=C(NC1CC2CCCC(C1)N2C(=O)Nc1ccccc1)c1ccccc1 (centres undefined),0.0046
8,COc1ccccc1CC(=O)NCCc1c[nH]c2ccccc12,0.0449
9,CCOc1ccccc1Nc1nnc(SCC(=O)N(C)C2CCS(=O)(=O)C2)s1 (centres undefined),> 0.0664
10,COc1ccccc1C(=O)NCCOc1ccc(C(C)(C)C)cc1,0.0027
11,C=CCOn1c(=O)c(-c2ccc(OCC)cc2)[n+]([O-])c2ccccc21,0.0063
12,COc1cc(OC)c(NC(=O)/C=C/C(=O)O)cc1Cl,> 0.0429
13,Cc1ccc2c(c1)c(=O)c1c3n2CCN(CC#N)C3CC1 (centres undefined),0.0377
14,Cl.Oc1ccc(Nc2ncnc3c2oc2ccccc23)cc1,0.0007
15,N#CCCN(C(=S)NC(=O)C1CCCCC1)c1ccccc1F,> 0.05
16,Cc1ccc(CCCOC(=O)CN2CCCCC2)cc1,0.0235
17,CC(NCc1ccccc1)c1ccccc1O (centres undefined),0.0272
18,Cc1cc(Nc2ccc(C(=O)N3CCCCC3)cc2)c2cccc(C)c2n1,0.0048
19,O=C(c1cc2cc(F)ccc2[nH]1)N1CCC(Cc2ccccc2)CC1,0.0013
20,O=C(COC(=O)/C=C/c1cccc(Br)c1)NC1CCCC1,0.0041
21,CS(=O)(=O)c1ccc(C(=O)NCc2ccc(F)cc2)cc1,0.0385
22,O=C(NC(=S)Nc1ccccc1N1CCCC1)c1cccs1,0.0032
23,CC(=O)Nc1ccc(N/C=C/C(=O)c2ccc(Cl)cc2)cc1,0.0024
24,CCN(C(=O)COC(=O)CCC(=O)c1cccs1)c1ccccc1,> 0.0518

row,SMILES,solubility kinetic [mg/mL]
1,COC(=O)c1ccc(N2CCN(C)CC2)c(NC(=O)c2cccs2)c1,> 0.0539
2,CCCN(CC1CC1)C(=O)CSc1ncnc2sccc12,> 0.0482
3,CCCN1CCC(NC(=O)C2CCCCC2C(=O)O)CC1 (centres undefined),> 0.0445
4,Cc1ccc(SCC(=O)NCCCc2ccccc2)cc1,0.0057
5,COC(=O)c1cc(C(=O)N2CCOCC2)cc([N+](=O)[O-])c1,> 0.0441
6,O=C(CSc1ccccn1)Nc1ccc2[nH]c(=O)[nH]c2c1,> 0.0451
7,COc1ccccc1CNC(=S)Nc1ccc(F)cc1,0.012
8,Cc1ccc(S(=O)(=O)NCc2cccnc2)cc1C,> 0.0415
9,CCCC12CN3CCN(C1)CC(CCC)(C3)C2=O,0.0309
10,O=C(Nc1ccc(F)cc1)c1ccc2[nH]c(=O)c(=O)[nH]c2c1,> 0.0449
11,CN1CCN(S(=O)(=O)c2ccc([N+](=O)[O-])cc2)CC1,> 0.0428
12,O=C(CN1CCN(Cc2ccccc2Cl)CC1)N/N=C/c1ccccn1,> 0.0558
13,O=C(NN=Cc1ccc(O)cc1)c1ccccc1NS(=O)(=O)c1cccs1,> 0.0602
14,Cc1ccc(S(=O)(=O)NCCOc2cc(C)ccc2C)cc1,0.0144
15,O=C(OCC(=O)N1CCCCCC1)c1cccnc1Cl,> 0.0445
16,O=C(NCc1ccco1)C(=O)c1cn(CC(=O)N2CCCCCC2)c2ccccc12,0.0143
17,O=C1c2ccc([N+](=O)[O-])cc2C(=O)N1Cc1cccnc1,> 0.0425
18,COc1ccc(S(=O)(=O)n2cnc3ccccc32)cc1.Cl,> 0.0487
19,Cl.O=C(CSC1=NCCN1)Nc1cccc([N+](=O)[O-])c1,> 0.0475
20,COc1ccc(CNC(=O)C(C)N(C)Cc2cccc(F)c2)cc1 (centres undefined),0.0261
21,O=C(NCCc1ccccn1)c1cncc(Br)c1,> 0.0459
22,O=C(CNCc1cccc2ccccc12)Nc1ccccc1[N+](=O)[O-],0.0054
23,CCOP(=O)(OCC)C(O)c1cccc([N+](=O)[O-])c1 (centres undefined),0.0392
24,O=C(Nc1ccccc1O)c1ccc([N+](=O)[O-])cc1,0.0241

row,SMILES,solubility kinetic [mg/mL]
1,O=C(/C=C/c1cccc([N+](=O)[O-])c1)Nc1ccccn1,0.0007
2,CN(C)c1ccc(/C=C(/NC(=O)c2ccccc2)C(=O)N2CCCC2)cc1,0.0477
3,C#CCn1c(=O)cc(C)c2ccccc21,> 0.0296
4,O=S(=O)(c1ccccc1)N1CCc2ccccc2C1,< 0.0006
5,Cc1ccc(S(N)(=O)=O)cc1NC(=O)/C=C/c1ccc2c(c1)OCO2,0.0021
6,O=C(CN1C(=O)c2ccccc2C1=O)N1CCN=C1c1ccccc1,> 0.05
7,C1CN(c2nc3nonc3nc2N2CCSCC2)CCO1,0.0411
8,O=C(CN1CCCCCC1)NCC1CCCO1.O=C(O)C(=O)O (centres undefined),> 0.0496
9,CCN(C(=O)Cn1c(Cl)nc2c1c(=O)n(C)c(=O)n2C)C1CCCCC1,> 0.0573
10,Cc1cccc(NC(=O)C(=O)NCc2ccc3c(c2)OCO3)c1C,0.002
11,O=C(Nc1ccccc1O)c1ccc(C(=O)c2ccccc2)o1,< 0.0007
12,O=S(=O)(c1ccc(Cl)cc1)N1CCNCC1,> 0.0391
13,CC1(c2ccccc2Br)NC(=O)N(CC(=O)N2CCc3ccccc3C2)C1=O (centres undefined),0.0081
14,O=C(NC1CCCCCC1)c1ccc(Br)o1,0.0277
15,Cc1ccsc1-c1nc(CN2CCCC2c2ccc(F)cc2)c(C)o1 (centres undefined),0.0149
16,O=C(Nc1ccc2ccccc2c1)c1ccccc1F,< 0.0006
17,NC(=O)CN1C(=O)NC2(CCCc3sccc32)C1=O (centres undefined),> 0.0419
18,O=C(Nc1ccsc1C(=O)O)c1cccc(Oc2ccccc2)c1,0.0432
19,CCOC(=O)N1CCN(CCC(=O)c2ccc(Cl)cc2)CC1.Cl,> 0.0487
20,O=C(O)c1cc([N+](=O)[O-])ccc1NCc1cccnc1,> 0.041
21,CC(C)(C)OC(=O)N1CCC(C(=O)NCC2CCCO2)CC1 (centres undefined),> 0.0469
22,COCCCn1c(=S)[nH]c(C)c(C)c1=O,> 0.0342
23,CC(c1ccccc1)N1CCc2[nH]c(=S)[nH]c(=O)c2C1 (centres undefined),0.0199
